Laboratory results from patent US8637536B2, “Pyrimidinone compounds for use in the treatment of diseases or conditions mediated by Lp-PLA2” (Glaxo Group Limited, priority 2010, dated 2014).
Where a name gives a salt, the structure may show the parent alone.

The compounds below were run against T1, recombinant human Lp-PLA2 (Homo sapiens, UniProt Q13093) (assay: Recombinant human Lp-PLA2 assay (rhLp-PLA2, PED6 assay)). Conditions: text thresholds; upper limit for pIC50 in this assay is 9.3; read-out: pIC50 values in the PED6 assay (converted).
T1 sequence (Q13093 22-441): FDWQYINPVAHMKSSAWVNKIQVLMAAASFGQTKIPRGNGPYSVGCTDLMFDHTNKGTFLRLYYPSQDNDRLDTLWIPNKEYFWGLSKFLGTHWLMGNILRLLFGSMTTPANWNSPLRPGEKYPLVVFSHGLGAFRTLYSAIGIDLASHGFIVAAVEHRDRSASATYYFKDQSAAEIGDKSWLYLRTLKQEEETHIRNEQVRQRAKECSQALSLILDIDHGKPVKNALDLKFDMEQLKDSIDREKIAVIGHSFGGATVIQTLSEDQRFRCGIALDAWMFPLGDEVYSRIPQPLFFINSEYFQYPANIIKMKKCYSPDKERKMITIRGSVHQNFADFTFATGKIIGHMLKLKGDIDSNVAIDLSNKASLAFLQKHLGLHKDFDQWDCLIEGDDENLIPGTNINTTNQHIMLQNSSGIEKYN
Format: biochemical
From the text: (1) Recombinant Human Lp-PLA2 Assay (rhLp-PLA2) (Also Referred to as “PED6” Assay)
N-((6-(2,4-dinitrophenyl)amino)-hexanoyl)-2-(4,4-difluoro-5,7-dimethyl-4-bora-3a,4a-diaza-s-indacene-3-pentanoyl)-1-hexadecanoyl-sn-glycero-3-phosphoethanolamine, triethylammonium salt (PED6) is a commercially available fluorescently-labelled phospholipid, which is commercially available from Molecular Probes. There is a quenching […] position and a Bodipy fluorescein (FL) group in the sn2 position.
The PED6 assay was run as an unquenched 10 μL assay. Compounds source plate was prepared by making 1:3 (by volume) serial dilution of the compounds into pure DMSO on 384-well microplate. […] 5 μL of recombinant human Lp-PLA2 enzyme (2 nM rhLp-PLA2 in assay buffer of 50 mM HEPES, pH7.4, 150 mM NaCl, 1 mM CHAPS) was added to each well of the plate with compounds. Plates were centrifuged for 10 sec at 500 rpm. […] Plates were centrifuged for 10 sec at 500 rpm. Plate was covered to protect from light and incubated for 20 min at room temperature. […] PIC50 data, curve and QC analysis was conducted by using XL fit module in Excel.
In the case of O=c1nc(NCCc2ccc(Oc3ccc(Cl)c(C(F)(F)F)c3)cc2)[nH]cc1Cc1cncnc1 [E11, 2-{[2-(4-{[4-Chloro-3-(trifluoromethyl)phenyl]oxy}phenyl)ethyl]amino}-5-(5-pyrimidinylmethyl)-4(1H)-pyrimidinone], the IC50 is reported as ≤ 1 nM.
With COc1ncc(Cc2c[nH]c(OCCc3ccc(Oc4ccc(Cl)c(C(F)(F)F)c4)cc3)nc2=O)cn1 [E24, 2-{[2-(4-{[4-Chloro-3-(trifluoromethyl)phenyl]oxy}phenyl)ethyl]oxy}-5-{[2-(methyloxy)-5-pyrimidinyl]methyl}-4(1H)-pyrimidinone] the IC50 was ≤ 1 nM.
With COc1ncc(Cc2cn(C)c(OCCc3ccc(Oc4ccc(Cl)c(C(F)(F)F)c4)cc3)nc2=O)cn1 [E25, 2-{[2-(4-{[4-Chloro-3-(trifluoromethyl)phenyl]oxy}phenyl)ethyl]oxy}-1-methyl-5-{[2-(methyloxy)-5-pyrimidinyl]methyl}-4(1H)-pyrimidinone] the IC50 was ≤ 1 nM.
With O=c1nc(OCCc2cc(F)c(Oc3ccc(Cl)c(C(F)(F)F)c3)c(F)c2)[nH]cc1Cc1cncnc1 [E29, 2-{[2-(4-{[4-Chloro-3-(trifluoromethyl)phenyl]oxy}-3,5-difluorophenyl)ethyl]oxy}-5-(5-pyrimidinylmethyl)-4(1H)-pyrimidinone] the IC50 was ≤ 1 nM.
With Cn1cc(Cc2cncnc2)c(=O)nc1OCCc1cc(F)c(Oc2ccc(Cl)c(C(F)(F)F)c2)c(F)c1 [E30, 2-{[2-(4-{[4-Chloro-3-(trifluoromethyl)phenyl]oxy}-3,5-difluorophenyl)ethyl]oxy}-1-methyl-5-(5-pyrimidinylmethyl)-4(1H)-pyrimidinone] the IC50 was ≤ 1 nM.
O=c1nc(OCCc2ccc(Oc3ccc(Cl)c(C(F)(F)F)c3)c(F)c2)[nH]cc1Cc1cncnc1 [E31, 2-{[2-(4-{[4-Chloro-3-(trifluoromethyl)phenyl]oxy}-3-fluorophenyl)ethyl]oxy}-5-(5-pyrimidinylmethyl)-4(1H)-pyrimidinone trifluoroacetate] was tested, and the IC50 was ≤ 1 nM.
With COc1ncc(Cc2c[nH]c(SCc3ccc(Oc4ccc(F)cc4)cc3)nc2=O)cn1 [E52, 2-((4-(4-fluorophenoxy)benzyl)thio)-5-((2-methoxypyrimidin-5-yl)methyl)pyrimidin-4(1H)-one] the IC50 was ≤ 10 nM.
With COc1ncc(Cc2cn(C)c(SCc3ccc(Oc4ccc(F)cc4)cc3)nc2=O)cn1 [E53, 2-[({4-[(4-fluorophenyl)oxy]phenyl}methyl)thio]-1-methyl-5-{[2-(methyloxy)-5-pyrimidinyl]methyl}-4(1H)-pyrimidinone] the IC50 was ≤ 10 nM.
In the case of Cn1cc(Cc2c[nH]c(SCc3ccc(Oc4ccc(Cl)c(C(F)(F)F)c4)c(C#N)c3)nc2=O)cn1 [E58, 2-(4-chloro-3-(trifluoromethyl)phenoxy)-5-(((5-((1-methyl-1H-pyrazol-4-yl)methyl)-4-oxo-1,4-dihydropyrimidin-2-yl)thio)methyl)benzonitrile, trifluoroacetic acid salt], the IC50 is reported as ≤ 1 nM.
With Cn1cc(Cc2cn(C)c(SCc3ccc(Oc4ccc(F)c(C(F)(F)F)c4)c(C#N)c3)nc2=O)cn1 [E60, 2-(4-fluoro-3-(trifluoromethyl)phenoxy)-5-(((1-methyl-5-((1-methyl-1H-pyrazol-4-yl)methyl)-4-oxo-1,4-dihydropyrimidin-2-yl)thio)methyl)benzonitrile, trifluoroacetic acid salt] the IC50 was ≤ 1 nM.
CCc1cn(C)c(SCc2ccc(Oc3ccc(Cl)c(C(F)(F)F)c3)c(C#N)c2)nc1=O [E64, 2-{[4-chloro-3-(trifluoromethyl)phenyl]oxy}-5-{[(5-ethyl-1-methyl-4-oxo-1,4-dihydro-2-pyrimidinyl)thio]methyl}benzonitrile] was tested, and the IC50 was ≤ 10 nM.
COc1ncc(Cc2c[nH]c(SCc3ccc(Oc4ccc(Cl)c(C(F)(F)F)c4)cc3)nc2=O)cn1 [E74, 2-{[(4-{[4-chloro-3-(trifluoromethyl)phenyl]oxy}phenyl)methyl]thio}-5-{[2-(methyloxy)-5-pyrimidinyl]methyl}-4(1H)-pyrimidinone] was tested, and the IC50 was ≤ 1 nM.
COc1ncc(Cc2c[nH]c(SCc3ccc(Oc4ccc(F)c(C(F)(F)F)c4)c(C#N)c3)nc2=O)cn1 [E89, 2-{[4-fluoro-3-(trifluoromethyl)phenyl]oxy}-5-{[(5-{[2-(methyloxy)-5-pyrimidinyl]methyl}-4-oxo-1,4-dihydro-2-pyrimidinyl)thio]methyl}benzonitrile] was tested, and the IC50 was ≤ 1 nM.
N#Cc1cc(CSc2nc(=O)c(Cc3cncnc3)c[nH]2)ccc1Oc1cccc(C(F)(F)F)c1 [E96, 5-({[4-oxo-5-(5-pyrimidinylmethyl)-1,4-dihydro-2-pyrimidinyl]thio}methyl)-2-{[3-(trifluoromethyl)phenyl]oxy}benzonitrile] was tested, and the IC50 was ≤ 1 nM.
For COc1ncc(Cc2c[nH]c(SCc3ccc(Oc4cccc(C(F)(F)F)c4)c(C#N)c3)nc2=O)cn1 [E100, 5-{[(5-{[2-(methyloxy)-5-pyrimidinyl]methyl}-4-oxo-1,4-dihydro-2-pyrimidinyl)thio]methyl}-2-{[3-(trifluoromethyl)phenyl]oxy}benzonitrile], the IC50 was ≤ 1 nM.
For Cn1cc(Cc2cncnc2)c(=O)nc1SCCc1ccc(Oc2ccc(Cl)c(C(F)(F)F)c2)cc1 [E116, 2-{[2-(4-{[4-chloro-3-(trifluoromethyl)phenyl]oxy}phenyl)ethyl]thio}-1-methyl-5-(5-pyrimidinylmethyl)-4(1H)-pyrimidinone], the IC50 was ≤ 1 nM.
With N#Cc1cc(CCSc2nc(=O)c(Cc3cncnc3)c[nH]2)ccc1Oc1ccc(Cl)c(C(F)(F)F)c1 [E118, 2-{[4-chloro-3-(trifluoromethyl)phenyl]oxy}-5-(2-{[4-oxo-5-(5-pyrimidinylmethyl)-1,4-dihydro-2-pyrimidinyl]thio}ethyl)benzonitrile] the IC50 was ≤ 1 nM.
For COc1ncc(Cc2c[nH]c(SCCc3ccc(Oc4ccc(Cl)c(C(F)(F)F)c4)c(C#N)c3)nc2=O)cn1 [E119, 2-{[4-chloro-3-(trifluoromethyl)phenyl]oxy}-5-{2-[(5-{[2-(methyloxy)-5-pyrimidinyl]methyl}-4-oxo-1,4-dihydro-2-pyrimidinyl)thio]ethyl}benzonitrile], the IC50 was ≤ 1 nM.
COc1ncc(Cc2c[nH]c(OCCc3ccc(Oc4ccc(C(F)(F)F)cn4)cc3)nc2=O)cn1 [E137, 5-((2-methoxypyrimidin-5-yl)methyl)-2-(4-((5-(trifluoromethyl)pyridin-2-yl)oxy)phenethoxy)pyrimidin-4(1H)-one] was tested, and the IC50 was ≤ 10 nM.
For COc1ncc(Cc2c[nH]c(OCCc3ccc(Oc4c(F)cc(Cl)cc4F)cc3)nc2=O)cn1 [E181, 2-(4-(4-chloro-2,6-difluorophenoxy)phenethoxy)-5-((2-methoxypyrimidin-5-yl)methyl)pyrimidin-4(1H)-one], the IC50 was ≤ 10 nM.

Same assay, conditions: upper limit for pIC50 obtained in this PED6 assay is 9.3; read-out: rhLp-PLA2 (PED6 assay) (pIC50) (converted)
In the case of O=c1nc(NCCc2ccc(Oc3ccc(Cl)c(C(F)(F)F)c3)cc2)[nH]cc1Cc1cncnc1 [E11, 2-{[2-(4-{[4-Chloro-3-(trifluoromethyl)phenyl]oxy}phenyl)ethyl]amino}-5-(5-pyrimidinylmethyl)-4(1H)-pyrimidinone], the IC50 is reported as 1 nM.
Compound Cn1cc(Cc2c[nH]c(OCCc3ccc(Oc4ccc(Cl)c(C(F)(F)F)c4)cc3)nc2=O)cn1 [E22, 2-{[2-(4-{[4-Chloro-3-(trifluoromethyl)phenyl]oxy}phenyl)ethyl]oxy}-5-[(1-methyl-1H-pyrazol-4-yl)methyl]-4(1H)-pyrimidinone trifluoroacetate] has an IC50 of 0.794 nM.
COc1ncc(Cc2c[nH]c(OCCc3ccc(Oc4ccc(Cl)c(C(F)(F)F)c4)cc3)nc2=O)cn1 [E24, 2-{[2-(4-{[4-Chloro-3-(trifluoromethyl)phenyl]oxy}phenyl)ethyl]oxy}-5-{[2-(methyloxy)-5-pyrimidinyl]methyl}-4(1H)-pyrimidinone] gave an IC50 of 0.794 nM.
Cn1cc(Cc2c[nH]c(SCc3ccc(Oc4ccc(Cl)c(C(F)(F)F)c4)c(C#N)c3)nc2=O)cn1 [E58, 2-(4-chloro-3-(trifluoromethyl)phenoxy)-5-(((5-((1-methyl-1H-pyrazol-4-yl)methyl)-4-oxo-1,4-dihydropyrimidin-2-yl)thio)methyl)benzonitrile, trifluoroacetic acid salt] was tested, and the IC50 was ≤ 0.501 nM.
With COc1ncc(Cc2c[nH]c(SCc3ccc(Oc4ccc(Cl)c(C(F)(F)F)c4)cc3)nc2=O)cn1 [E74, 2-{[(4-{[4-chloro-3-(trifluoromethyl)phenyl]oxy}phenyl)methyl]thio}-5-{[2-(methyloxy)-5-pyrimidinyl]methyl}-4(1H)-pyrimidinone] the IC50 was 0.631 nM.
Compound Cn1cc(Cc2c[nH]c(SCc3ccc(Oc4ccc(Cl)c(C(F)(F)F)c4)c(C#N)c3)nc2=O)c2ccccc21 [E81, 2-(4-chloro-3-(trifluoromethyl)phenoxy)-5-(((5-((1-methyl-1H-indol-3-yl)methyl)-4-oxo-1,4-dihydropyrimidin-2-yl)thio)methyl)benzonitrile] has an IC50 of 25.1 nM.
Cn1cc(Cc2c[nH]c(SCCc3ccc(Oc4ccc(Cl)c(C(F)(F)F)c4)cc3)nc2=O)cn1 [E112] was tested, and the IC50 was ≤ 0.501 nM.
With O=c1nc(OCCc2ccc(Oc3ccc(Cl)c(C(F)(F)F)c3)cc2)[nH]cc1Cc1c(F)cc(F)cc1F [E129, 2-{[2-(4-{[4-chloro-3-(trifluoromethyl)phenyl]oxy}phenyl)ethyl]oxy}-5-[(2,4,6-trifluorophenyl)methyl]-4(1H)-pyrimidinone] the IC50 was 3.98 nM.
